The series is described as follows: gradient 5% acetonitrile 3 min, to 50% in 2 min, to 85% in 15 min, held 3 min, 100 µL/min. The settings on record: column: Zorbax Extend-C18 2.1 x 50 mm; eluents: water / acetonitrile, 0.1% formic acid. Summed up:
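Using water and acetonitrile that each contained 0.1% formic acid, mixtures of ~100 pure standards were separated at 100 μL/min on a Zorbax Extend-C18 column (2.1 × 50 mm, 1.8 μm). The HPLC fed a quadrupole time-of-flight mass spectrometer working in positive and negative ionization mode, with dead and dwell volumes of 40 μL and 900 μL. Data were acquired over 3 months. Retention time was read from computationally picked adduct peaks after manual inspection of each.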
`COc1ccc(-c2ncc3c(n2)CCN(S(=O)(=O)c2ccc(C)c(Cl)c2)C3)cc1`: the RP-LC retention time came to 1180 s. With `O=C(Nc1ccccc1Cl)c1cc(C2CC2)n2nccc2n1`, the RP-LC retention time was determined as 1190 s. `OC(CN1CCN(c2ccccc2Cl)CC1)c1ccc2c(c1)OCO2` (centres undefined) showed an RP-LC retention time of 670 s. In turn, `Cc1cc(C)c2nc(C)cc(C(=O)NC(C)C)c2c1` registered an RP-LC retention time of 650 s.

For the molecule `COc1ccc(NC(=O)c2nnc(CSCC(=O)NCCc3c[nH]c4ccc(C)cc34)s2)cc1`, the RP-LC retention time was 910 s. In turn, `CCNC(=O)C1CCCN(c2nc3ncn(CC(=O)Nc4cc(C)cc(C)c4)c(=O)c3s2)C1` (centres undefined) gave an RP-LC retention time of 716 s. `O=C(NCCCn1c(-c2ccncc2)nc2cccnc21)Nc1ccc(F)cc1F` displayed an RP-LC retention time of 652 s. To `CCOC(=O)c1c(CN(C)C)n(-c2ccccc2)c2cc(-c3cccnc3)c(O)cc12` belongs 576 s; to `Cc1ccc(Nc2ncccc2S(N)(=O)=O)cc1`, 795 s. For `Cc1ccc(S(=O)(=O)c2cnc(N3CCc4ccccc4C3)nc2N)cc1C`, the RP-LC retention time was 1150 s. To `Cc1ccc(C)c(NC(=O)Cc2nnc(-c3ccc4ncccc4c3)o2)c1` belongs 736 s; to `O=C(Nc1nnc(C2CC(=O)N(c3ccc(F)cc3)C2)o1)c1ccc(Br)cc1` (centres undefined), 783 s. On to `CCNC(=O)CCc1cc2ccccc2[nH]c1=O`, for which the RP-LC retention time stood at 623 s. As for `COc1ccc(C(C)NC(=O)c2cc(-c3ccccc3)cn2C)cc1OC` (centres undefined), the RP-LC retention time amounted to 963 s.

In turn, `O=C(Cc1ccc(NC(=O)NC2CC2)cc1)NCC(F)(F)F` gave an RP-LC retention time of 611 s.

`COc1ccccc1NC(=O)N1CCC2(CC1)NC(=O)c1ccc(Cl)cc1N2C` came in with an RP-LC retention time of 806 s. `O=C(NCc1csc(-c2ccccc2)n1)C1CCN(S(=O)(=O)c2ccccc2F)CC1`: the RP-LC retention time was 914 s.

In turn, `COc1ccc(NS(=O)(=O)c2ccc(/C=C\c3onc(C)c3NC(C)=O)cc2)cc1` registered an RP-LC retention time of 779 s. As to `COc1ccc(CN2CCN(C(=O)CCc3c(C)noc3C)CC2)cn1`, the RP-LC retention time was determined as 646 s. `N#Cc1c(N)sc2c1CCC(c1ccccc1)C2` (centres undefined) yielded an RP-LC retention time of 955 s. To `Cc1ccc(-c2noc(-c3ccccc3S(=O)(=O)NCCN3CCC(C)CC3)n2)cc1` belongs 771 s; to `COc1ccc(CC(=O)NC2CCN(c3cc(-c4ccccc4)[nH]n3)C2)cc1OC` (centres undefined), 659 s; to `Cc1ccc(C2Cn3nnc(-c4nc(-c5ccccc5Cl)no4)c3CO2)c(C)c1` (centres undefined), 1290 s. For `c1ccc(C(NCc2cccnc2)(c2ccccc2)c2ccccc2)cc1`, the RP-LC retention time amounted to 831 s. For the molecule `Cc1cc(S(=O)(=O)N2CCC(OCc3noc(C4CCCO4)n3)CC2)ccc1Cl` (centres undefined), the RP-LC retention time was 1040 s. `CCCn1c(=O)sc2cc(S(=O)(=O)N3CCC(C(=O)NC)CC3)ccc21` returned an RP-LC retention time of 730 s. In the case of `COc1ccc(NC(=O)Nc2nccn(-c3ccc(Cl)cc3)c2=O)cc1OC`, the RP-LC retention time stood at 854 s. With `Cc1cc(C)n(-c2cc(Nc3ccc(F)cc3)ncn2)n1`, the RP-LC retention time came to 1010 s. `O=C(c1cccs1)N1CCCC(c2nnc(-c3ccccc3)o2)C1` (centres undefined) displayed an RP-LC retention time of 805 s. `CC12CCC(C(=O)NCc3ccccc3)(OC1=O)C2(C)C` (centres undefined) had an RP-LC retention time of 768 s. With `CC1(C(=O)NCc2ccccc2)CN(S(C)(=O)=O)CC(=O)N1c1ccccc1F` (centres undefined) the figure was 773 s. The molecule `O=S(=O)(c1ccc2c(c1)OCCO2)N1CCCn2nc(-c3cccs3)cc2C1` displayed an RP-LC retention time of 908 s. To `Cc1cccc(NC(=O)C2CCCN(S(=O)(=O)c3c[nH]c(C(=O)N4CCCC4)c3)C2)c1C` (centres undefined) belongs 802 s; to `Cc1nc(-c2ccc(-c3noc(CNC(=O)c4ccccc4)n3)cc2)cs1`, 902 s. `CCn1c(=O)sc2cc(S(=O)(=O)N3CCC(C(=O)Nc4cc(C)ccc4C)CC3)ccc21` yielded an RP-LC retention time of 932 s. To `CC(=O)CC(=O)Nc1ccc2ccccc2c1` belongs 800 s; to `Clc1ccc(Cl)c(-c2ccc(-c3nn4c(-c5ccco5)nnc4s3)o2)c1`, 1260 s. As for `O=C(CCc1c(-c2ccc(F)cc2)nc2ccccn12)NCc1cccc(F)c1`, the RP-LC retention time came out at 645 s.

For `C=C1C(=O)O[C@@H]2[C@H]3O[C@]3(C)CC/C=C(\C)CC[C@@H]12`, the RP-LC retention time came out at 898 s. The molecule `Cc1ccc(CNC(=O)C2CCCN(c3nnc4ccccn34)C2)cc1C` (centres undefined) gave an RP-LC retention time of 708 s.

Molecule `O=C(Nc1cccc(F)c1)N1C[C@H]2C[C@H](C1)[C@H]1CCCC(=O)N1C2` showed an RP-LC retention time of 660 s. `CCOC(=O)N1CCN(C(=O)CSc2ccc(-n3cccn3)nn2)CC1` came in with an RP-LC retention time of 657 s.

The molecule `CC(C)(C)c1ccc(-c2nc(C3CC(=O)N(c4ccc(Cl)cc4)C3)no2)cc1` (centres undefined) came in with an RP-LC retention time of 861 s. To `O=C(C1CCN(S(=O)(=O)c2cc(-c3noc(C4CCC4)n3)cs2)CC1)N1CCCCC1` belongs 971 s; to `O=C1CCN(C(=O)C2COc3ccccc3O2)CCOCCN1` (centres undefined), 634 s; to `O=C(Nc1ccccc1)N1CCCC1c1nc(-c2cccc(Cl)c2)no1` (centres undefined), 1030 s. `COC(=O)C1=C(C)N(C(C)C)C(=O)C1(NC(=O)CCc1ccccc1)C(F)(F)F` (centres undefined): the RP-LC retention time amounted to 936 s. On to `CC(C)(C)c1ccc(C(=O)Nc2nc3ccccc3[nH]2)cc1`, for which the RP-LC retention time was 778 s. With `CSc1ccc(CN2CCN(c3cnn4c(C5CC5)nnc4c3)CC2)cc1`, the RP-LC retention time amounted to 603 s. As to `Cc1nc(N2CCOCC2)c2c(C(=O)N3CCN(c4cccc(Cl)c4)CC3)c(C)oc2n1`, the RP-LC retention time was 917 s. For the molecule `CCOC(=O)Cc1ccc(NC(=O)NCc2c(C)nn(C)c2C)cc1`, the RP-LC retention time turned out to be 680 s. Take `COc1ccc2c(c1)-c1nc(NC(=O)c3cccc(Br)c3)sc1CC2`: the RP-LC retention time came to 1230 s. On to `COc1cc(NC(=O)CCc2c(C)nn(-c3cc(N(C)C)ncn3)c2C)cc(OC)c1`, for which the RP-LC retention time is 792 s. `CCn1cc(C(=O)NC2CCCC2)c2nn(-c3ccccc3)c(=O)c-2c1` had an RP-LC retention time of 851 s. With `Cc1oc(-c2[nH]ncc2C(=O)N2CCOCC2)cc1S(=O)(=O)NCC1CCCCC1` the figure was 742 s; with `CC1=NS(=O)(=O)N(Cc2ccccc2)C=C1C(=O)OCc1noc(-c2ccccc2C)n1`, 1170 s.

On to `Fc1cccc(-c2nc(-c3ccc4c(c3)ncn4CCN3CCCC3)no2)c1`, for which the RP-LC retention time was found to be 634 s.

Turning to `O=C(CCn1nnc2cc(-c3noc(C4(c5ccccc5)CC4)n3)ccc21)N1CCCC1`, the RP-LC retention time was 958 s. With `Cc1ccc(Nc2nc(-c3ccc(C)cc3)c(C)s2)cc1` the figure was 1180 s; with `CCNc1cc(N2CCC(CCC(=O)NCCC(C)C)CC2)ncn1`, 538 s. In the case of `CC(C)(C)c1ccc(S(=O)(=O)N2CCCCC2C(=O)N2CCN(c3ccc(F)cc3)CC2)cc1` (centres undefined), the RP-LC retention time came to 1230 s.

As to `Cc1ccc(C(=O)Nc2ccc3c(c2)Sc2ncccc2C(=O)N3C(C)C)s1`, the RP-LC retention time amounted to 886 s. To `CS(=O)(=O)N1C[C@H]2CCN(Cc3cn[nH]c3-c3ccccc3)C[C@H]21` belongs 574 s; to `Cc1cc2nn(CC(=O)N3CCCC3)c(=O)n2c(-c2ccc(C(F)(F)F)cc2)n1`, 774 s. With `CCCNc1cc(N2CCC(CCC(=O)N(C)CCC)CC2)ncn1` the figure was 589 s; with `COc1ccc(C(=O)N2CCCC(COc3ccc(C(=O)NC(C)C)cc3)C2)c(C)c1` (centres undefined), 842 s; with `O=c1c2sccc2n(Cc2nc(-c3ccccc3)no2)c(=O)n1-c1ccc(F)cc1`, 969 s. In turn, `O=C(NCc1noc(-c2cccc(Cl)c2)n1)c1coc(-c2ccccc2)n1` gave an RP-LC retention time of 1050 s. In turn, `CSc1cccc(NC(=O)N2CCC3(CC2)NC(=O)c2ccccc2O3)c1` yielded an RP-LC retention time of 793 s. Molecule `CCC(C)NC(=O)N1CCN(Cc2nc3cc(C(=O)N(CC)CC)ccc3o2)CC1` (centres undefined) showed an RP-LC retention time of 619 s. With `Cc1cccc(CNC(=O)C2(C)Oc3cccnc3N(C)C2=O)c1` (centres undefined) the figure was 876 s; with `O=C(Cc1ccc(F)cc1)N1CCCC1c1nc(-c2ccc(F)cc2)no1` (centres undefined), 1010 s; with `CCCS(=O)(=O)N1[C@H]2CC[C@@H]1c1cnc(-c3ccc(F)cc3)nc1C2`, 1010 s. For the molecule `CN(C)c1ncncc1N1CCC(C(=O)N2CCN(c3ccc(F)cc3)CC2)CC1`, the RP-LC retention time stood at 641 s. `COCC(=O)N1CCc2c([nH]c3ccccc23)C1c1ccc(C)cc1` (centres undefined) had an RP-LC retention time of 971 s.

For the molecule `CCCCNC1(c2cc3ccccc3s2)CCCCC1`, the RP-LC retention time is 831 s.

As for `O=C(NCCc1ccccc1)c1nnc(-c2ccc(S(=O)(=O)N3CCCC3)cc2)o1`, the RP-LC retention time amounted to 916 s. To `Cc1ccc2c(C(=O)NCCc3cccs3)cc(NC(=O)C3CC3)cc2n1` belongs 633 s. With `O=C(NCc1ccccc1)C1CCCN(c2nc3ccsc3c(=O)n2Cc2ccc(F)cc2)C1` (centres undefined), the RP-LC retention time was 943 s.

These data come from the METLIN SMRT retention time set (Domingo-Almenara et al. 2019).
